Experiments:
Assay type in all cases: in vivo
[1] = test system: Southern Armyworm (Spodoptera eridania), 2nd instar larvae; test: Action on southern armyworm 2nd instar larvae, sprayed lima bean plants; settings: 96 h, 4 days after treatment, read-out: mortality in comparison with untreated controls
Summary of the method: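 Lima bean plants (Sieva, 1st true leaf) sprayed electrostatically with compound in 50% acetone/water plus 0.01% nonionic surfactant, dried, then infested with 10–11 larvae in bags. Held at about 25 °C, 20–40% RH; mortality and reduced feeding scored 4 days after treatment versus untreated plants.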

[2] = test system: Diamond Back Moth (Plutella xylostella); test: Action on diamond back moth, dipped cabbage leaves; settings: 3rd instar larvae, 72 hours after treatment, read-out: mortality in comparison with untreated controls
Summary of the method: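 Cabbage leaves dipped in compound in 1:1 water:acetone with 0.01% (vol/vol) surfactant, air-dried, placed on moist filter paper and infested with ten 3rd-instar larvae. Mortality scored 72 hours after treatment; feeding damage rated on a 0-100% scale.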

[3] = test system: Orchid Thrips (Dichromothrips corbetti); test: Action on orchid thrips, floral-immersion technique; settings: adult thrips, 72 hours after treatment, read-out: mortality in comparison with untreated controls
Summary of the method: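 Lab-colony adult thrips, about 20 per arena, were exposed to whole orchid flower petals dipped in compound diluted in 1:1 acetone:water with 0.01% v/v Kinetic HV and then dried. Arenas were held under continuous light at about 28 °C. Live thrips were counted after 3 days and percent mortality recorded at 72 h post-treatment.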

[4] = test system: Mediterranean fruitfly (Ceratitis capitata); test: Action on Mediterranean fruitfly, eggs on insect diet in microtiter plates; settings: 120 h, egg and larval mortality visually assessed after 5 days, read-out: mortality in comparison with untreated controls
Summary of the method: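 Microtiter plates held insect diet plus 50-80 C. capitata eggs; compounds in 75% water/25% DMSO were sprayed onto the diet at several concentrations, two replicates. Plates were kept at about […] and […] relative humidity for 5 days, then egg and larval mortality was scored visually.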

[5] = test system: yellow fever mosquito (Aedes aegypti); test: whole plant or invertebrate; settings: 48 h, larval mortality visually assessed after 2 days, read-out: mortality in comparison with untreated controls
Summary of the method: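 Freshly hatched larvae (5-15 per well) held in 200 μl tap water; compounds formulated in 25% DMSO/water and 2.5 μl sprayed at several concentrations, two replicates. Plates kept 2 days at 28 °C, 80% RH, then larval mortality scored visually.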

[6] = test system: Silverleaf Whitefly (Bemisia argentifolii) (Adults); test: Action on silverleaf whitefly adults, sprayed cotton plants; settings: 72 h, 3 days after treatment, read-out: mortality in comparison with untreated controls
Description: Example B4: Action on Silverleaf Whitefly (Bemisia argentifolii) (Adults)
The active compounds were formulated by a Tecan liquid handler in 100% cyclohexanone as a 10,000 ppm solution supplied in tubes. The 10,000 ppm solution was serially diluted in 100% cyclohexanone to make interim solutions. These served as stock solutions for which final dilutions were made by the Tecan in 50% acetone:50% water (v/v) into 5 or 10 ml glass vials. A nonionic surfactant (Kinetic®) was included in the solution at a volume of 0.01% (v/v). The vials were then inserted into an automated electrostatic sprayer equipped with an atomizing nozzle for application to plants/insects.
Cotton plants at the cotyledon stage (one plant per pot) were sprayed by an automated electrostatic plant sprayer equipped with an atomizing spray nozzle. The plants were dried in the sprayer fume hood and then removed from the sprayer. Each pot was placed into a plastic cup and about 10 to 12 whitefly adults (approximately 3-5 days old) were introduced. The insects were collected using an aspirator and a nontoxic Tygon® tubing connected to a barrier pipette tip. The tip, containing the collected insects, was then gently inserted into the soil containing the treated plant, allowing insects to crawl out of the tip to reach the foliage for feeding. Cups were covered with a reusable screened lid. Test plants were maintained in a growth room at about 25° C. and about 20-40% relative humidity for 3 days, avoiding direct exposure to fluorescent light (24 hour photoperiod) to prevent trapping of heat inside the cup. Mortality was assessed 3 days after treatment, compared to untreated control plants.

[7] = test system: vetch aphid (Megoura viciae); test: Action on vetch aphid, broad bean leaf disks in 24-well microtiter plates; settings: foliar, 120 h, adult aphids on treated leaf disks, 5 days, read-out: mortality in comparison with untreated controls
Description: Example B7: Action on Vetch Aphid (Megoura viciae)
For evaluating control of vetch aphid (Megoura viciae) through contact or systemic means the test unit consisted of 24-well-microtiter plates containing broad bean leaf disks.
The compounds were formulated using a solution containing 75% v/v water and 25% v/v DMSO. Different concentrations of formulated compounds were sprayed onto the leaf disks at 2.5 μl, using a custom built micro atomizer, at two replications.
After application, the leaf disks were air-dried and 5-8 adult aphids placed on the leaf disks inside the microtiter plate wells. The aphids were then allowed to suck on the treated leaf disks and incubated at about 23±1° C. and about 50±5% relative humidity for 5 days. Aphid mortality and fecundity was then visually assessed.

[8] = test system: tobacco budworm (Heliothis virescens); test: Action on tobacco budworm, eggs on insect diet in 96-well microtiter plates; settings: 120 h, egg and larval mortality visually assessed after 5 days, read-out: mortality in comparison with untreated controls
Summary of the method: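 Compounds in 25% DMSO/water sprayed (10 μl) onto insect diet holding 15–25 H. virescens eggs, two replicates at several concentrations. Held 5 days at about 28±1 °C, 80±5% RH. Egg and larval mortality scored visually.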

[9] = test system: boll weevil (Anthonomus grandis); test: Action on boll weevil, eggs on insect diet in 96-well microtiter plates; settings: 120 h, 800 ppm, egg and larval mortality visually assessed after 5 days, read-out: mortality in comparison with untreated controls
Summary of the method: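 Diet in 96-well plates was infested with 5-10 A. grandis eggs and sprayed with compounds formulated in 75% water/25% DMSO, at several concentrations, in two replicates. Plates were held 5 days at about 25±1 °C and 75±5% RH. Egg and larval mortality was then scored visually.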

CC(C)c1ccccc1N1CCS/C1=N/N=C/c1ccc2c(ccc3c2ncn3-c2ccc(OC(F)(F)F)cc2)n1 [Compound C-21, (E)-3-(2-isopropylphenyl)-N-[(E)-[3-[4-(trifluoromethoxy)phenyl]imidazo[4,5-f]quinolin-7-yl]methyleneamino]thiazolidin-2-imine]
≥ 75%: mortality at 500 ppm [1] | mortality at 500 ppm [2] | mortality at 500 ppm [3] | mortality at 800 ppm [4] | mortality at 800 ppm [5] | mortality at 500 ppm [6] | mortality at 800 ppm [7] | mortality at 800 ppm [8] | mortality at 800 ppm [9]

Reference: patent US10106558B2, “Azolobenzazine compounds, compositions comprising these compounds and their use for controlling invertebrate pests” (BASF SE, priority 2015, dated 2018)
